# What was measured:
# D2.mdx mice [1] = assay: Seven-day GKT831 treatment of six-month-old D2.mdx mice (apoptosis, gene expression); format: in vivo, mouse; details: gastrocnemius, 60 mg/kg, seven days, vs vehicle
# Experimental: (§1) Mice were housed 3-5 mice per cage, randomly assigned into groups, provided ad libitum access to food (NIH-31 Open formulation diet; Envigo #7917), water, and enrichment, and maintained on a 12-hour light/dark system. Once daily (Q.D.) GKT831 (purchased from Ambeed, Inc.) was administered orally (P.O.) suspended at a concentration of 36 mg/mL in a vehicle consisting of sterilized sunflower seed oil (Sigma-Aldrich). […] The GKT831 treatment group received a dose of 60 mg/kg (21). All animal procedures were approved and conducted in accordance with the University of Florida IACUC and reported using the recommendations of ARRIVE guidelines.
# (§2) OCT-embedded murine tissues were cryo-sectioned at […] and fixed in 4% PFA. Immunofluorescent analysis was performed using anti-NOX4 (1:2000; Abcam #13303), anti-laminin (1:800; Novus #MAB2549), anti-vimentin (1:1000; Novus #MB300), anti-PDGFRα (1:500; R&D Systems #AF1062), anti-SMA (1:1000; Abcam #ab5694), anti-periostin (1:500, Abcam #ab14041), anti-Pax7 (1:100; R&D Systems #MAB1675), anti-Myosin X (1:800; Sigma #HPA024223) and anti-active caspase-3 (1:1000; Cell Signaling 49661) primary antibodies. Mouse tissue sections incubated with mouse monoclonal antibodies were first incubated with a solution containing donkey anti-mouse IgG AffiniPure Fab fragments (1:25 in PBS; Jackson ImmunoResearch #715-007-003) for one hour prior to blocking. Following overnight incubation in primary antibody, sections were rinsed with PBS and incubated with the appropriate species-specific secondary antibody (1:500 dilution). Lipofuscin-dependent autofluorescence was quenched using a 0.1% solution of Sudan black B following secondary antibody incubation. Slides were cover-slipped using Prolong Gold mounting reagent (Invitrogen). Images were acquired using a Leica SP8 confocal microscope. All comparative images were stained simultaneously and acquired using identical settings. Human samples were obtained through the National Disease Research Interchange (Philadelphia, PA).
# Gene expression analysis was conducted as previously described (17) using the following mouse-specific primers: Col1a2 (forward) 5′-ATGGTGGCAGCCAGTTTGAA-3′ (SEQ ID NO: 1) and (reverse) 5′-TCCAGGTACGCAATGCTGTT-3′ (SEQ ID NO: 2); Acta2 (forward) 5′-CTACTGCCGAGCGTGAGATTGTCC-3′ (SEQ ID NO: 3) and (reverse) 5′-GAGGGCCCAGCTTCGTCGTATT-3′ (SEQ ID NO: 4); 116 (forward) 5′-AACCACGGCCTTCCCTACTTC-3′ (SEQ ID NO: 5) and (reverse) 5′-TCTGGCTTTGTCTTTCTTGTTATC-3′ (SEQ ID NO: 6); Tgfb1 (forward) 5′-GACTCTCCACCTGCAAGACCAT-3′ (SEQ ID NO: 7) and (reverse) 5′-GGGACTGGCGAGCCTTAGTT-3′ (SEQ ID NO: 8); Gapdh (forward) 5′-AGCAGGCATCTGAGGGCCCA-3′ (SEQ ID NO: 9) and (reverse) 5′-TGTTGGGGGCCGAGTTGGGA-3′ (SEQ ID NO: 10). Relative gene expression quantification was performed using the ΔΔCt method with Gapdh as the normalization gene.
# Because the presumed mechanism attributed to myofibroblast clearance has been that of promoting their apoptosis (20), a short-term study was performed to investigate acute changes in muscle that result from NOX4 inhibition.
# [2] = as described; cited from earlier work
# D2.mdx mice [3] = assay: 3-month GKT831 treatment of D2.mdx mice, muscle histology and immunofluorescence; format: in vivo, mouse; details: 60 mg/kg P.O. Q.D.
# Source text: D2.mdx (Jax #013141) and D2.WT (Jax #000671) mice were originally obtained from Jackson Laboratory. The Nox4^KO:mdx mouse line was created by crossing the Nox4^tm1Klr knockout allele ((23); Jax #022996) onto the D2.mdx background for five generations, as previously reported (15). Following the second backcross, only Nox4^tm1Klr/+ mice homozygous for the DBA/2J polymorphism of […] were selected for continued line development (16). This is because both Nox4 and Ltbp4 are located on murine chromosome 7, and cross-over is required for both alleles to segregate together. At the completion of the backcrossing, Nox4 heterozygous breed pairs were mated to produce Nox4^WT:mdx and Nox4^KO:mdx littermates that were used in experiments. All mice were genotyped for Nox4 using primer sequences provided by Jackson Laboratory, and for Ltbp4 and mdx alleles using published genotyping primers (16).
# as §1, §2
# Picrosirius red staining was performed as previously described (14) following decalcification of muscle sections using Formical-2000 (StatLab). Slides were visualized with a Leica DMR microscope, and images were acquired using a Leica DFC310FX camera interfaced with Leica LAS X software. All comparative images were stained simultaneously and acquired using identical settings. Images were processed and analyzed by investigators blinded to study groups using ImageJ software, as previously described (14). Image quantification for each sample consisted of the mean value from five independent and randomly-selected fields of view for each muscle section.
structure (smiles),measurement,setting,value
"CN(C)c1cccc(-c2c3c(=O)n(-c4ccccc4Cl)[nH]c3cc(=O)n2C)c1 [FTX1620, Setanaxib]",PDGFRα+ cells positive for active Caspase-3,D2.mdx mice [1],significantly more
same,Acta2 expression,D2.mdx mice [1]; real-time PCR,decreased expression
same,Col1a2 expression,D2.mdx mice [1]; real-time PCR,decreased expression
same,Il6 expression,D2.mdx mice [1]; real-time PCR,decreased expression
same,Tgfb1 expression,D2.mdx mice [1]; real-time PCR,decreased expression
same,oral bioavailability,[2],orally bioavailable
same,localization of Pax7 cells,"D2.mdx mice [3]; D2.mdx gastrocnemius, 3 months",largely re-localized
same,muscle fibers having central nuclei,"D2.mdx mice [3]; D2.mdx gastrocnemius, 3 months",increases
same,muscle fibers with expression of myosin X,"D2.mdx mice [3]; D2.mdx gastrocnemius, 3 months",increases
same,"myofibroblast numbers (PDGFRα, vimentin, SMA labeling)","D2.mdx mice [3]; D2.mdx gastrocnemius, 3 months",significantly reduced
same,"muscle fibrosis (picrosirius red, diaphragm and gastrocnemius)","D2.mdx mice [3]; D2.mdx mice, 3 months of treatment, evaluated at 6 months of age, vs vehicle",reduced D2.mdx muscle fibrosis
same,periostin+ area,"D2.mdx mice [3]; D2.mdx muscle, 3 months",significantly reduced

# Source: patent US20250223560A1, “NOX4 INHIBITOR COMPOSITIONS AND METHODS FOR REGENERATION OF DYSTROPHIC MUSCLE” (FULCRUM THERAPEUTICS, INC., priority 2022, published 2025)
